Assay results from patent US7728025B2, “2-heteroaryl-substituted benzimidazole derivative” (Banyu Pharmaceutical Co., Ltd., priority 2003, dated 2010).

Target: T1, recombinant human liver GK (Homo sapiens, UniProt P35557)
T1 construct: made in house; host or cells: E. coli
T1 sequence (P35557 1-466 isoform P35557-2): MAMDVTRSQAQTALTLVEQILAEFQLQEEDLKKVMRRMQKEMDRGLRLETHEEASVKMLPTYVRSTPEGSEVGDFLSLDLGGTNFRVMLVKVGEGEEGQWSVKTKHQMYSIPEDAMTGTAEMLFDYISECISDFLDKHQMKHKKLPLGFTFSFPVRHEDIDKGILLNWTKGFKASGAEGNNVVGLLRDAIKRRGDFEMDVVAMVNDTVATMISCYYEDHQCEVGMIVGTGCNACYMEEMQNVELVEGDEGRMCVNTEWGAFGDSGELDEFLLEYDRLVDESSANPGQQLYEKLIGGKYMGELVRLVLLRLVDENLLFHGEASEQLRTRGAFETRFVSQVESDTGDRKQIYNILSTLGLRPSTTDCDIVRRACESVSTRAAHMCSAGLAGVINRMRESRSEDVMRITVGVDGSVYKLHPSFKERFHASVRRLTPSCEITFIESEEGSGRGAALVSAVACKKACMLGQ
Test: Glucokinase (GK) activation assay: Thio-NADH formation coupled with G6PDH, absorbance at 405 nm
Type: biochemical
Settings: final glucose concentration 2.5 mM, 30° C.; for Emax: OD level of DMSO control set as 100%
Excerpt: The glucokinase activity may be determined not by directly measuring glucose-6-phosphate but by measuring the level of Thio-NADH, which is produced when a reporter enzyme, glucose-6-phosphate dehydrogenase produces phosphogluconolactone from glucose-6-phosphate, and based on the level, the degree of glucokinase activity of the compound tested may be determined.
In this assay, used was a recombinant human liver GK, which was expressed by E. coli as a FLAG fusion protein therein and was purified by […] M2 AFFINITY GEL (Sigma).
Using a 96-well plate, the assay was carried out at 30° C. 69 μl of an assay buffer (25 mM Hepes Buffer/pH=7.2, 2 mM MgCl2, 1 mM ATP, 0.5 mM TNAD, 1 mM dithiothreitol) was put into the plate, and 1 μl of a DMSO solution of the compound or DMSO alone as a control was added thereto. Next, 20 μl of an enzyme mixture (FLAG-GK, 20 U/ml G6PDH) cooled in ice was added to it, and 10 μl of a substrate, 25 mM glucose was added to it, and the reaction was initiated (final glucose concentration=2.5 mM).
After the start of the reaction, the increase in the absorbance at 405 nm was measured for 10 minutes at intervals of 30 seconds, and the increase for the first 5 minutes was used for evaluating the compound tested. FLAG-GK was added so that the absorbance increase after 5 minutes in the presence of 1% DMSO could be from 0.05 to 1.0.
The OD level of the DMSO control was set as 100%; and the OD level of the test compound at different concentrations was determined. From the OD level at each concentration, Emax (%) and EC50 (μM) were computed and used as the index of the GK-activating potency of the compound.

| Emax [%] | EC50 [nM] | Structure (SMILES) |
| --- | --- | --- |
| 832 | 1400 | COc1ccccc1Oc1cc(Oc2cccnc2)cc2[nH]c(-c3ccccn3)nc12 [Example 67, 4-(2-Methoxy-phenoxy)-2-pyridin-2-yl-6-(pyridin-3-yloxy)-1H-benzimidazole] |
| 768 | 2300 | CC(=O)c1ccccc1Oc1cc2nc(-c3ccccn3)[nH]c2cc1Oc1ccc(C(=O)N(C)C)cc1 [Example 26, 5-(2-Acetyl-phenoxy)-6-(4-dimethylcarbamoyl-phenoxy)-2-pyridin-2-yl-1H-benzimidazole] |
